Measurements from patent US20240271226A1, “METHODS OF PATHOGEN IDENTIFICATION AND ANTIMICROBIAL SUSCEPTIBILITY TESTING” (priority 2020, published 2024).
Where “and” joins values, the source holds several entries; their conditions need not be identical. Equal values may be shown once. {FAM-O} = FAM dye attached through an O linker at the PNA N-terminus; {IABk} = Iowa Black quencher

Key:
[1] = test system: multi-drug resistant strain of E. coli (ATCC BAA 2471); conditions: cited from earlier work
[2] = test system: uropathogenic E. coli; conditions: Baltimore, USA; cited from earlier work
[3] = test system: E. coli ATCC 25922 16S rRNA; assay: Bulk PNA probe hybridization assay in urine, LIF detection; type: binding; conditions: ~10^9 CFU/mL E. coli ATCC 25922 spiked in urine; 2 min 95° C. lysis, 30 min 60° C. hybridization
Text: (§1) PNA probes were designed to target specific regions in the 16S rRNA for organisms belonging to the Enterobacterales (EB) order, the E. coli and P. mirabilis species (EC and PM), and the eubacterial kingdom (UNI), based on previous work (52, 72) (Table 1). The EB, EC, and PM probes were labeled with a FAM fluorophore, whereas the universal probe was labeled with an Alexa546 fluorophore. For each PNA probe, a short complementary DNA quencher was designed labeled with an Iowa Black® dark quencher. All probes were synthesized by PNA Bio (Newbury Park, CA), and all DNA quencher strands were synthesized by Integrated DNA Technologies (San Diego, CA). Probes and quenchers were stored in a custom hybridization buffer consisting of 50 mM NaCl, 25 mM Tris-HCl pH 8.0, and 0.5% polyvinylpyrrolidone (PVP) at −20° C. PVP is included to reduce the likelihood of probes being adsorbed to or retained by the walls of the PDMS devices. Prior to each experiment, individual aliquots of PNA probes were first thawed at 60° C. for 10 min to ensure full dissolution of the PNA stock into the hybridization buffer. For both bulk-based and droplet experiments, 200 nM PNA probes were mixed with 600 nM of the corresponding quencher in the custom hybridization buffer, and this solution was either mixed in bulk or co-encapsulated into droplets at a 1:1 ratio along with bacteria-containing urine and/or MH suspensions. An appropriate dosage of antibiotics was included in this mixture if required for the experiment.
(§2) We first verified that the probes can specifically detect target bacteria spiked into urine. […] We spiked ˜10^9 CFU/mL (equivalent to 1 cell in a ˜1 pL droplet) of standard reference strains of E. coli ATCC 25922, P. mirabilis ATCC 12453, K. pneumoniae ATCC BAA 1705, and P. aeruginosa ATCC 27853 into a mixture of culture-negative (i.e., blank) urine samples and hybridization buffer with each PNA probe. Each sample was subjected to 2 min of thermal lysis at 95° C. and 30 min of hybridization at 60° C., and then detected at room temperature within a 10 μm-wide microfluidic detection channel by our 2-color LIF detector (FIG. 6).

[4] = Tm of designed PNA probes; type: physicochemical
Text: as §1, with “An appropriate dosage of antibiotics was included in this mixture if required for the experiment.” left out

[5] = test system: K. pneumoniae ATCC BAA 1705 16S rRNA; assay: Bulk PNA probe hybridization assay in urine, LIF detection; type: binding; conditions: ~10^9 CFU/mL K. pneumoniae ATCC BAA 1705 spiked in urine; 2 min 95° C. lysis, 30 min 60° C. hybridization
Text: as §1, §2

[6] = test system: P. aeruginosa ATCC 27853 16S rRNA; assay: as above; type: binding; conditions: ~10^9 CFU/mL P. aeruginosa ATCC 27853 spiked in urine; 2 min 95° C. lysis, 30 min 60° C. hybridization
Text: as §1, §2

[7] = test system: P. mirabilis ATCC 12453 16S rRNA; assay: as above; type: binding; conditions: ~10^9 CFU/mL P. mirabilis ATCC 12453 spiked in urine; 2 min 95° C. lysis, 30 min 60° C. hybridization
Text: as §1, §2

[8] = test system: multi-drug resistant E. coli ATCC BAA 2471; assay: Bulk pheno-molecular AST by 16S rRNA hybridization detection; type: cell-based; conditions: gentamicin 8 μg/mL, 20 μL bulk, 0-120 min at 37° C., EC PNA probe
Text: (§3) We note that we can achieve preliminary pheno-molecular AST by directly detecting PNA-to-16S rRNA hybridization in the bulk format via the LIF detector, though only after relatively lengthy antibiotic exposure. […] We then determined the relative fluorescence intensity—the ratio between the fluorescence intensities of the gentamicin-dosed cells and the gentamicin-free cells—for both strains for each culture duration.

[9] = test system: reference E. coli ATCC 25922; assay: as above; type: cell-based
Text: as §3

[10] = test system: E. coli cells; assay: In-droplet single-cell 16S rRNA AST in MH broth; type: cell-based
Text: A custom MATLAB program was developed for analyzing the raw fluorescence intensity data acquired from the APD. From the fluorescence intensity time trace of each experimental run, the program looks for individual droplets by quantifying peak widths and peak heights. Once droplet position and fluorescence intensity were identified for all droplets in a sample, the intensities were plotted as a histogram with ˜150 bins. Resulting histograms typically follow a bimodal distribution, and in order to classify the respective subpopulations, the first droplet histogram peak (“empty droplets”) were fitted with a Gaussian curve. Based on the fitted curve, the mean intensity of the empty droplet population as well as the standard deviation were calculated. All droplets whose intensities were 5 standard deviations above the empty droplet mean intensity were counted as bacteria-containing “positive droplets.” Signal to background ratios were calculated by dividing the mean intensity of positive droplets by the mean intensity of empty droplets.
We first co-encapsulated the EC probe and E. coli cells, which were spiked into Mueller-Hinton broth (MH), into picoliter droplets. […]

[11] = test system: reference E. coli; assay: In-droplet single-cell 16S rRNA AST in spiked urine; type: cell-based; conditions: gentamicin 8 μg/mL, urine with 2×MH broth, 37° C. for 30, 15, 10 or 5 min
[12] = test system: multi-drug resistant E. coli; assay: as above; type: cell-based; conditions: gentamicin 8 μg/mL, urine with 2×MH broth, 37° C. for 30, 15, 10 or 5 min
Experimental: We next sought to minimize the culture/antibiotic exposure time for assessing antimicrobial susceptibility in urine. We separately digitized reference and multi-drug resistant E. coli-spiked urine samples, each along with 2×MH broth and EC PNA probes in droplets without and with gentamicin (bactericidal concentration of 8 μg/mL). Each gentamicin-free and gentamicin-dosed droplet group pair was then incubated at 37° C. for 30, 15, 10, or 5 min, followed by lysis, hybridization, and LIF detection (FIG. 13B). Longer bacterial culture result in higher production of 16S rRNA in gentamicin-free bacterial cells and therefore increased positive droplet frequencies. […] The effect of gentamicin on the two strains can be differentiated after as short as 10 min culture/antibiotic exposure, the minimum time at which there is no overlap between the error envelopes around the normalized positive droplet populations. […] As a result, we achieve assessment of antimicrobial susceptibility faster than the average replication time of an E. coli cell, a feat that ultimately paves the way for integrating molecular ID and AST to well under 30 min.
Finally, we investigated the utility of our single-cell 16S rRNA-based phenomolecular AST approach against 3 clinically important antibiotics. […]. […]

CC1(C)S[C@@H]2[C@H](NC(=O)[C@H](N)c3ccccc3)C(=O)N2[C@H]1C(=O)O [ampicillin]
reported resistance of the strain [1]: resistant

O=C(O)c1cn(C2CC2)c2cc(N3CCNCC3)c(F)cc2c1=O [ciprofloxacin]
reported resistance of the strain [1]: resistant
resistance rate [2]: ≤ 31%

EC probe: FAM-labeled PNA probe FAM-O-TCAATGAGCAAAGGT-KK targeting E. coli 16S rRNA, with Iowa Black DNA quencher IABk-AGTTACTCGT (chain 1: all peptide nucleic acid (PNA), 5' {FAM-O}; chain 2: DNA, 5' {IABk}, backbone and methylation of C not given here; PNA carries two C-terminal lysines)
probe fluorescence signal in the presence of target bacteria over blank urine background [3]: significantly higher signal
Tm [4]: 76.3 °C

UNI probe: Alexa546-labeled pan-bacteria PNA probe GCTGCCTCCCGTAGGA-K-Alexa546 targeting eubacterial 16S rRNA, with DNA quencher GGAGGGCATCCT-IABk (PNA, lysine-Alexa546, DNA quencher strand, chemistry not fully specified)
probe fluorescence signal in the presence of target bacteria over blank urine background [3]: successfully detects
probe fluorescence signal in the presence of target bacteria over blank urine background [5]: successfully detects
probe fluorescence signal in the presence of target bacteria over blank urine background [6]: successfully detects
probe fluorescence signal in the presence of target bacteria over blank urine background [7]: successfully detects
Tm [4]: 80.5 °C

gentamicin
relative fluorescence intensity (gentamicin-dosed cells / gentamicin-free cells) [8]: ~1
culture/antibiotic exposure needed to see or differentiate the effect on susceptible vs resistant E. coli ([9]; bulk format, vs multi-drug resistant E. coli BAA 2471): > 90 min and 90 min
relative fluorescence intensity (gentamicin-dosed cells / gentamicin-free cells) ([9]; gentamicin 8 μg/mL, 20 μL bulk, 0-120 min at 37° C., EC PNA probe): significantly lower relative fluorescence intensities
normalized positive droplet population versus antibiotic concentration ([10]; E. coli in MH broth, droplets): decreases as the concentration of gentamicin increases
frequency of positive droplets ([10]; gentamicin 128 μg/mL, 30 min culture/antibiotic exposure, MH broth, 4×10^7 CFU/mL E. coli, no-antibiotic control 7.70%): 3.12%
normalized positive droplet population [11]: decreasing normalized positive droplet population over increasing culture times
normalized positive droplet population [12]: comparatively higher and relatively unchanging normalized positive droplet population
reported resistance of the strain [1]: resistant
